Source: US11304965B2, “Flavonoid compositions and related methods” (INSTITUTO DE INVESTIGACIONES CIENTIFICAS Y SERVICIOS DE …, priority 2017, dated 2022)

How the values were obtained:
Type in all cases: cell-based
human ETB receptor = biological target: T1, human ETB receptor (Homo sapiens, UniProt P24530); experiment: Aequorin bioluminescence intracellular calcium assay, CHO-AEQ-ETB cells; conditions: CHO-AEQ cells expressing ETB; samples 100 μg/ml; compared with 100 nM endothelin 1; FIG. 20
T1 construct: pcDNA3.1+ plasmid DNA into which had been inserted the coding region for human AT1, AT2, or ETB receptor; expressed in transfected cells; host or cells: CHO-AEQ (Chinese hamster ovary cells stably expressing aequorin), transient transfection with Fugene HD
T1 sequence (P24530 27-442): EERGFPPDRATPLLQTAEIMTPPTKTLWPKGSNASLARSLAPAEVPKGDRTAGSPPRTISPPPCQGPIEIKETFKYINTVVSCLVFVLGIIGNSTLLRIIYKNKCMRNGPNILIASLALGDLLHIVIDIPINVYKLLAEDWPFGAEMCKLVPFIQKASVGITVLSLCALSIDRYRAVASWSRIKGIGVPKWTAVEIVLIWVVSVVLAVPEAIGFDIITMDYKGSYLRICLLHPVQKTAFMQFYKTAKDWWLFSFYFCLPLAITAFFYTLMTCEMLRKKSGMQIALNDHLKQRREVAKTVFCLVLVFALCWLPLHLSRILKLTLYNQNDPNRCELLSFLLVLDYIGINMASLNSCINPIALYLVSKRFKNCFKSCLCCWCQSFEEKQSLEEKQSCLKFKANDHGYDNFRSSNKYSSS
Experimental: (§1) To investigate the vasculoprotective, neuroprotective, and/or antihypertensive properties of Cecropia extracts, Chinese hamster ovary cells that had been stably transfected with aequorin (CHO-AEQ cells) were transiently transfected with various G-protein coupled receptors.
More particularly, CHO-AEQ cells were cultured in Dulbecco's Modified Eagle's Medium (DMEM) containing 10% fetal bovine serum as previously described (Vanderheyden et al., 126 Br J Pharmacol 1057-1065 (1999)). At 75% confluency, these cells were transiently transfected with pcDNA3.1+ plasmid DNA into which had been inserted the coding region for human AT1, AT2, or ETB receptor. […]
Intracellular calcium can be detected based on the interaction of calcium ions with the calcium binding bioluminescent complex aequorin. […]
(§2) Measurements were initiated by injecting 50 μl solution/well, and the bioluminescence was recorded every 200 ms for 120 cycles. To account for slight variations in cell number, a final concentration of 10 μM ATP was added by a second injector to the cells (50 μl/well) and the resulting response was measured.
(§3) The effects were quantified by calculation of the area under the curves by integration of the obtained transient responses using GraphPad Prism 5™. The activation of the AT1, AT2, or ETB receptors was expressed as a fractional response. […]

human AT2 receptor = biological target: T2, human AT2 receptor (Homo sapiens, UniProt P50052); experiment: Aequorin bioluminescence intracellular calcium assay, CHO-AEQ-AT2 cells; conditions: CHO-AEQ cells expressing AT2; samples 100 μg/ml; compared with angiotensin II; FIG. 19
T2 construct: pcDNA3.1+ plasmid DNA into which had been inserted the coding region for human AT1, AT2, or ETB receptor; expressed in transfected cells; host or cells: CHO-AEQ (Chinese hamster ovary cells stably expressing aequorin), transient transfection with Fugene HD
T2 sequence (P50052 1-363): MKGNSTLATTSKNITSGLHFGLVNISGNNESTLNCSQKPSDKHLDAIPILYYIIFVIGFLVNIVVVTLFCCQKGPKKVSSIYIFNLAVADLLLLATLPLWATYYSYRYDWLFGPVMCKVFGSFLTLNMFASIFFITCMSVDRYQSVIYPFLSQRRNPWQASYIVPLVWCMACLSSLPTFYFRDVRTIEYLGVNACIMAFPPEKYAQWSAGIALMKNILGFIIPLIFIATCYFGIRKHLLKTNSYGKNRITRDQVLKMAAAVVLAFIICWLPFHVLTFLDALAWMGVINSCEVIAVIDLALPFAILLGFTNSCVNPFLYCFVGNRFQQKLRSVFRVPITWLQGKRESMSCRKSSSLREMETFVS
Experimental: as §1
(§4) More particularly, CHO-AEQ cells were cultured in Dulbecco's Modified Eagle's Medium (DMEM) containing 10% fetal bovine serum as previously described (Vanderheyden et al., 126 Br J Pharmacol 1057-1065 (1999)). At 75% confluency, these cells were transiently transfected with pcDNA3.1+ plasmid DNA into which had been inserted the coding region for human AT1, AT2, or ETB receptor. The transient transfection was performed with Fugene HD® following the manufacturers' instructions (2 μg DNA to 7 μl Fugene HD® in Opti-MEM® medium. After transfection, the cells were cultured for an additional day, after which they were harvested and loaded with coelenterazine-h.
(§5) Intracellular calcium can be detected based on the interaction of calcium ions with the calcium binding bioluminescent complex aequorin. Upon calcium binding, aequorin oxidizes coelenterazine-h into coelenteramide with production of CO2 and emission of light (466 nm) (Le Poul et al., 7 J Biomol Screen 57-65 (2002). The CHO-AEQ cells that had been transiently transfected with human AT1, human AT2 or human ETB receptors were used in a bioluminescence assay to evaluate whether—and to what extent—material isolated from Cecropia obtusifolia could perturb G-protein coupled receptor(s).
(§6) Confluent CHO-AEQ cells that were grown and transfected in 75 cm^2 culture flasks were harvested by a brief treatment with a trypsin/EDTA solution, centrifuged, and resuspended in DMEM-F12 cell culture medium containing 0.1% BSA and denoted as assay buffer, at a cell density of 2.5×10^6 cells/ml. Subsequently, coelenterazine-h was added to the cell suspension to a final concentration of 5 μM. Cells were then incubated between 14 h and 18 h at room temperature in the dark under gentle shaking. After this loading step, 15 ml of assay buffer was added to the cells and then centrifuged for 7 min at 1100 rpm in a swinging bucket centrifuge. The resulting cell pellets were gently resuspended in assay buffer containing 1 μM coelenterazine-h at a cell density of 5×10^5 cells/ml. After a further incubation of 1.5 h at room temperature, the cell suspension was distributed at 100 μl/well in white Cellstar 96-well plates.
To assess the activity of the compounds derived from Cecropia obtusifolia extracts, lyophilized crude extract (and compounds that had been identified in the extract) were dissolved in DMSO at 1 mg/ml, and then further diluted in assay buffer to 100 μg/ml (final concentration) (Caballero-George et al., 4 Curr. Trends Biotechnol Pharm 881-899 (2010)). A […] was then added to each well containing the transiently transfected cells. For comparison, control peptides were diluted in assay buffer to a final concentration of 0.1 μM angiotensin II or 10 nM endothelin-1. These control peptides are known to cause a transient rise in cytosolic calcium. The agonist solutions were loaded in the cell injector of a Victor spectrophotometer, and a 96-well plate was inserted.
as §2
The effects were quantified by calculation of the area under the curves by integration of the obtained transient responses using GraphPad Prism 5™. The activation of the AT1, AT2, or ETB receptors was expressed as a fractional response. This is obtained by dividing the agonist response by the sum of the agonist and ATP response for each well (i.e., agonist response/(ATP+agonist response)). […]

human AT1 receptor = biological target: T3, human AT1 receptor (Homo sapiens, UniProt P30556); experiment: Aequorin bioluminescence intracellular calcium assay, CHO-AEQ-AT1 cells (inhibition of angiotensin II); conditions: CHO-AEQ cells expressing AT1; 100 nM angiotensin II; samples 100 μg/ml; compared with losartan; FIG. 21
T3 construct: pcDNA3.1+ plasmid DNA into which had been inserted the coding region for human AT1, AT2, or ETB receptor; expressed in transfected cells; host or cells: CHO-AEQ (Chinese hamster ovary cells stably expressing aequorin), transient transfection with Fugene HD
T3 sequence (P30556 1-359): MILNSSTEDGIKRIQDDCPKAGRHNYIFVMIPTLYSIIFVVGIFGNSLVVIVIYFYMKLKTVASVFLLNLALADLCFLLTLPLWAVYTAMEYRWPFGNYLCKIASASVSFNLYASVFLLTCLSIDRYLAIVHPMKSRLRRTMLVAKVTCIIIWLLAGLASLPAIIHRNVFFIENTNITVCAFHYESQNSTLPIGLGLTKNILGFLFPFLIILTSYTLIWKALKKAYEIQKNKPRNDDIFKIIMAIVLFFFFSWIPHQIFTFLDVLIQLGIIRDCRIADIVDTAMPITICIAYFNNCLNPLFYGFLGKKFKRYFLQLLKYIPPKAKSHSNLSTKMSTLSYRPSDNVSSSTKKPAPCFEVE
Experimental: as §1, §4, §5, §6
To assess the activity of the compounds derived from Cecropia obtusifolia extracts, lyophilized crude extract (and compounds that had been identified in the extract) were dissolved in DMSO at 1 mg/ml, and then further diluted in assay buffer to 100 μg/ml (final concentration) (Caballero-George et al., 4 Curr. Trends Biotechnol Pharm 881-899 (2010)). A […] was then added to each well containing the transiently transfected cells. […]
as §2, §3

Compound | cytoplasmic calcium release after binding to the ETB receptors (human ETB receptor) | activation of the AT2 receptor (cytoplasmic calcium release) (human AT2 receptor) | inhibition of the agonistic effect of angiotensin II on the AT1 receptor (human AT1 receptor)
isovitexin-O-xyloside [Compound P6] | the most active sample tested | approximately half of the activity of the extract | 
O=c1cc(-c2ccc(O)c(O)c2)oc2cc(O)c(C3OC(CO)C(O)C(O)C3OC3OCC(O)C(O)C3O)c(O)c12 (stereo not drawn) [Compound P4, isoorientin-2″-O-xyloside] |  | approximately half of the activity of the extract | less than half of the effect of Fraction 3-4
O=c1cc(-c2ccc(O)cc2)oc2cc(O)c(C3OC(CO)C(O)C(O)C3OC3OC(CO)C(O)C(O)C3O)c(O)c12 (stereo not drawn) [Compound P7, isovitexin-2″-O-glucoside] |  | approximately half of the activity of the extract | less than half of the effect of Fraction 3-4
O=C(/C=C/c1ccc(O)c(O)c1)O[C@@H]1C[C@](O)(C(=O)O)C[C@@H](O)[C@H]1O [Compound P2, chlorogenic acid] |  | approximately half of the activity of the extract | less than half of the effect of Fraction 3-4
CC1OC(OC2C(c3c(O)cc4oc(-c5ccc(O)cc5)cc(=O)c4c3O)OC(CO)C(O)C2O)C(O)C(O)C1O (stereo not drawn) [Compound P9, isovitexin-2″-O-rhamnoside] |  | approximately half of the activity of the extract | less than half of the effect of Fraction 3-4
O=c1cc(-c2ccc(O)cc2)oc2cc(O)c(C3OC(CO)C(O)C(O)C3OC3OCC(O)C(O)C3O)c(O)c12 (stereo not drawn) [Compound P8, isovitexin-2″-O-xyloside] |  | approximately half of the activity of the extract | less than half of the effect of Fraction 3-4
